The values that follow come from paper PMC10940743, “Discovery of a Novel Cellobiose Dehydrogenase from Cellulomonas palmilytica EW123 and Its Sugar Acids Production” (Journal of Microbiology and Biotechnology, 2023).

In this test the test system is T1, CpCDH (recombinant cellobiose dehydrogenase).
T1 construct: gene cdh; signal peptide (30 residues) excluded; CYT + linker + DH domains, no CBM1; pET-28a NdeI/NotI, C-terminal His tag avoided by stop codon (N-terminal His tag implied, HisTrap); E. coli BL21(DE3); 923 residues printed; forward primer starts MVEPRH; printed 2,772 bp PCR product fits poorly with residues 31-923
Description: spectrophotometric DCPIP reduction at […] nm, Michaelis-Menten. Format: biochemical, Cellulomonas palmilytica. Conditions: DCPIP as electron acceptor; 50 mM sodium acetate pH 5.0; 25°C.

Structures are written as SMILES.

Consider `OC[C@H]1O[C@@H](O[C@H]2[C@H](O)[C@@H](O)C(O)O[C@@H]2CO)[C@H](O)[C@@H](O)[C@H]1O` (some centres unmarked) [Lactose], for which the Km was determined as 6.93 mM.
Consider `OC[C@H]1O[C@@H](O[C@H]2[C@H](O)[C@@H](O)C(O)O[C@@H]2CO)[C@H](O)[C@@H](O)[C@@H]1O` (some centres unmarked) [Cellobiose], for which the Km was determined as 2.24 mM.
